The nature of the assay: microbiological proof of ciprofloxacin bioactivity after manufacturing and during in vitro drug release tests. To be noted: microbiologically proved.

SMILES strings stand for the structures.

For the compound `O=C(O)c1cn(C2CC2)c2cc(N3CCNCC3)c(F)cc2c1=O` [Ciprofloxacin, ciprofloxacin], the “bioactivity of ciprofloxacin after manufacturing and during the in vitro drug release tests” value was “bioactive” (Example 1, P(L/DL)LA composite) and “bioactive” (Example 2, PLGA composite).

The values are drawn from US20060121082A1, “Method to enhance drug release from a drug-releasing material” (priority 2004, published 2006).
